Measured values as given in PMC11182235 (Frontiers in Ophthalmology, 2023).
Entries after “also recorded” stand apart in the source; their conditions may differ. Where two headings read alike, the source gives them in different places.

Legend:
adult porcine RGCs = conditions: cited from earlier work
isolated rat RGCs = conditions: cited from earlier work
[1] = tested on: isolated retinal ganglion cells; format: cell-based, porcine
[2] = tested on: isolated retinal ganglion cells; conditions: cited from earlier work
RGC = conditions: in vivo; cited from earlier work
α7 nAChR = α7 nAChR (Sus scrofa, UniProt F1SNR6); assay: biochemical; format: binding, porcine
α4 nAChR = α4 nAChR (Sus scrofa, UniProt A0A286ZKF4+A0A287BFD8); format: binding, porcine; conditions: for Ki: read-out: Mean Ki against [3H]-cytisine
α3 nAChR = α3 nAChR (Sus scrofa, UniProt A0A287A7Z4); format: binding, porcine; conditions: read-out: Mean Ki against [3H]-epibatidine
retinal ganglion cells = format: cell-based, rat
α4β2 nicotinic receptors = conditions: cited from earlier work
α7 nicotinic receptors = conditions: cited from earlier work
α7 nAChRs = conditions: cited from earlier work
α3β4 receptors = conditions: cited from earlier work
[3] = rat retinal slice, RGCs, fluo-4 fluorescence, n = 4

Sequence of α4 nAChR (A0A286ZKF4 31-595 limits assumed): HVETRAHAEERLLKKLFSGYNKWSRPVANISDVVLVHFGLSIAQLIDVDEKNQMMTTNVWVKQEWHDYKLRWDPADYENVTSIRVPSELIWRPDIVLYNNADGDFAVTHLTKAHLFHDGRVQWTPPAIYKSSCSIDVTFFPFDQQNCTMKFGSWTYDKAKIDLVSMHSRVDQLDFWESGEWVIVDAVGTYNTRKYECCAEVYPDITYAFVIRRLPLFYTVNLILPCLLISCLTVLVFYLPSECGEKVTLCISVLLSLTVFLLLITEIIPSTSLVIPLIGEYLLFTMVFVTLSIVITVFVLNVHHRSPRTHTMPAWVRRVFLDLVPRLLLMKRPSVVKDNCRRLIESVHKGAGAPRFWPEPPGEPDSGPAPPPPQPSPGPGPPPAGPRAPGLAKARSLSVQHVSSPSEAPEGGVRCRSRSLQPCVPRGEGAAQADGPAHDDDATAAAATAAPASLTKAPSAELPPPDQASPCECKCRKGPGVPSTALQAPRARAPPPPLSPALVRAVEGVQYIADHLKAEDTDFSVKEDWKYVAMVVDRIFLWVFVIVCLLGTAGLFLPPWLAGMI
Sequence of α4 nAChR (A0A287BFD8 26-502 limits assumed): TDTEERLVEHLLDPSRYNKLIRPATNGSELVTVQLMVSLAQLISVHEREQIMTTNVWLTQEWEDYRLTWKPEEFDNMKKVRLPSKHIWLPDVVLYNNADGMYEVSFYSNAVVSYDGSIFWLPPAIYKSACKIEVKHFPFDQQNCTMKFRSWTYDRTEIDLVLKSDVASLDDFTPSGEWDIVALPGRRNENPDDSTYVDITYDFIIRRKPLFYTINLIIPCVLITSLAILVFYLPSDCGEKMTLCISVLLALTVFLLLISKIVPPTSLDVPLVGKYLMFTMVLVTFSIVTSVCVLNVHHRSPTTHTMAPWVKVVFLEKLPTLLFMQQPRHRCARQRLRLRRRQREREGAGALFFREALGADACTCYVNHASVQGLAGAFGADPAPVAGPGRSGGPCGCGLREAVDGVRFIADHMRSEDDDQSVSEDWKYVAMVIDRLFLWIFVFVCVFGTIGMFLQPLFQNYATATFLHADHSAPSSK
Sequence of α7 nAChR (F1SNR6 20-499 limits assumed): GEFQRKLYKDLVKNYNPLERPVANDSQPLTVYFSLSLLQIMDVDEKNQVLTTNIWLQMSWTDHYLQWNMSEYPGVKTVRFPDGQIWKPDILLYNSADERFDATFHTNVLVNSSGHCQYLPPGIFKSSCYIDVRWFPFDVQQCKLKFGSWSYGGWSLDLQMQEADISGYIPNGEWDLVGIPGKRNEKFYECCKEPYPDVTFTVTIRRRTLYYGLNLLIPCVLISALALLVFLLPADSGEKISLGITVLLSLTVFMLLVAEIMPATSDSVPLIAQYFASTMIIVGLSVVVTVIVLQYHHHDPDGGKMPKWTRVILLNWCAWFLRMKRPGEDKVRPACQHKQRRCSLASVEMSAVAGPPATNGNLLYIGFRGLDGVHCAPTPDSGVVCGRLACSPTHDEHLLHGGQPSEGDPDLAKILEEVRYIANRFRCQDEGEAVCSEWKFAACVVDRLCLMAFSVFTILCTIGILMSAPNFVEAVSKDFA
Sequence of α3 nAChR (A0A287A7Z4 30-503 limits assumed): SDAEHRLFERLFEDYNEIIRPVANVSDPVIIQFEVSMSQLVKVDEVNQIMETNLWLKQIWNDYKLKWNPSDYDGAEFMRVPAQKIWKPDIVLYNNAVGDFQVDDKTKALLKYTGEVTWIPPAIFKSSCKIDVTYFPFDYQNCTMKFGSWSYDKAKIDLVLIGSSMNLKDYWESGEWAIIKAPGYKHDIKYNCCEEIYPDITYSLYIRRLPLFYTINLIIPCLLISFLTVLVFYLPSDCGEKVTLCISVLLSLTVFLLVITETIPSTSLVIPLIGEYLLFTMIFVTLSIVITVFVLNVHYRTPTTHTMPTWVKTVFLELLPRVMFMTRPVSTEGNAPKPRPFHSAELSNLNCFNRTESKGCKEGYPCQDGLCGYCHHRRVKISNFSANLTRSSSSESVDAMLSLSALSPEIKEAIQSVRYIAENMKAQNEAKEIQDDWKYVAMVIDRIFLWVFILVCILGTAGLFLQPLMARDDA

CC(=O)OCC[N+](C)(C)C [ACh, acetylcholine]
Reduction of glutamate-induced excitotoxicity (adult porcine RGCs): significantly reduced

CCN1C[C@]2(COC(=O)c3ccccc3N3C(=O)C[C@H](C)C3=O)CC[C@H](OC)[C@@]34[C@@H]5C[C@H]6[C@H](OC)[C@@H]5[C@](O)(C[C@@H]6OC)[C@@](O)([C@@H](OC)[C@H]23)[C@@H]14 [MLA, Methyllycaconitine]
Block of neuroprotective effect of 100 nM PNU-282987 against glutamate-induced toxicity (isolated rat RGCs): blocked; also recorded: inhibited the protective effects

O=C(N[C@H]1CN2CCC1CC2)c1ccc(Cl)cc1 [PNU-282987]
Neuroprotection against glutamate-induced excitotoxicity [1]: effective in the low-to-mid nanomolar concentration range | Cell numbers in porcine retinal cell culture relative to control [2]: increased numbers of cells | Cell numbers in isolated rat RGC culture relative to control (isolated rat RGCs): increased numbers of cells | RGC cell numbers in the intact rat (RGC): increase in RGC cell numbers

C[N+](C)(C)CCO [choline]
Reduction of glutamate-induced excitotoxicity (adult porcine RGCs): significantly reduced

Clc1ccc(C2CC3CCC2N3)cn1 (centres unmarked) [epibatidine]
inhibition at 100 µM (α7 nAChR; read-out: Percent inhibition of [125I]-α-BTX binding): 3% | Ki (α4 nAChR): 0.1 ± 0.03 nM | Ki (α3 nAChR): 0.7 ± 0.05 nM | Threshold dose, calcium response (retinal ganglion cells): 1 nM | Ki (α4β2 nicotinic receptors): 0.02 nM | Ki (α7 nicotinic receptors): 233 nM

CN1CCC[C@H]1c1cccnc1 [nicotine]
Ki (α7 nAChR): 300000 ± 22000 nM | Ki (α4 nAChR): 20 ± 0.7 nM | Ki (α3 nAChR): 220 ± 0.6 nM | Saturating dose, calcium response (retinal ganglion cells; [3]): 20 µM | Threshold dose, calcium response (retinal ganglion cells; [3]): 2000 nM | Protection against glutamate-induced excitotoxicity at higher levels ([1]; additional preliminary and published experiments ([47])): drop-off in protection at higher levels | Concentration at which toxicity reported (adult porcine RGCs): 50 µM | Reduction of glutamate-induced excitotoxicity (adult porcine RGCs): significantly reduced

α-Bungarotoxin [α-BTX]
Ki (α7 nAChR; read-out: Mean Ki against [125I]-α-BTX): 170 ± 40 nM | Percent inhibition of [3H]-cytisine binding (α4 nAChR; 0.1 µM): 3% ± 3 | Effect of antagonist on neuroprotection by PNU-282987 [1]: reduction in the neuroprotective effects | IC50 (α7 nAChRs): 1.6 nM | IC50 (α3β4 receptors): > 3000 nM
